From patent publication US20170119776A1, “CHIRAL 2,5-DISUBSTITUTED CYCLOPENTANECARBOXYLIC ACID DERIVATIVES AND USE THEREOF” (BAYER PHARMA AKTIENGESELLSCHAFT, priority 2014, published 2017)

What was measured:
Type in all cases: biochemical
MMP-1 = biological target: T1, MMP-1 (Homo sapiens, UniProt P03956); experiment: In vitro MMP-1 inhibition test
T1 construct: purchased R&D Systems 901-MP
T1 sequence (P03956 100-469): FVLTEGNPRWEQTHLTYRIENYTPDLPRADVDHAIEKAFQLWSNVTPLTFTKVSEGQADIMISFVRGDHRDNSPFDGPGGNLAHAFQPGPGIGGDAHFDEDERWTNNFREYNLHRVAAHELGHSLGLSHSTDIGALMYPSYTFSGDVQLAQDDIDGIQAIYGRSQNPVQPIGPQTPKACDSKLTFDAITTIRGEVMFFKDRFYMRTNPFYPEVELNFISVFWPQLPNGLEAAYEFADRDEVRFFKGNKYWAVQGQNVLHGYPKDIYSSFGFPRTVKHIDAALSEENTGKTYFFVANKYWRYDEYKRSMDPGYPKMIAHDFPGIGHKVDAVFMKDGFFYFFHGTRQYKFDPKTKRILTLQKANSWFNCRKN
Excerpt: (§1) The activity strength of the compounds according to the invention towards other MMPs (and therefore their selectivity) is likewise ascertained in in vitro inhibition tests. The MMP-mediated amidolytic cleavage of a suitable peptide substrate also leads here to a fluorescent light increase. The signal intensity of the fluorescent light is directly proportional to the enzyme activity. The active concentration of a test compound at which half of the enzyme is inhibited (50% signal intensity of the fluorescent light) is given as IC50 value.
(§2) Recombinant MMP-1 (R&D Systems, 901-MP) is chemically activated in accordance with the manufacturer's instructions by using APMA. 1 μl of the test compound to be analysed (as a solution in DMSO, suitable concentrations e.g. 1 nM to 30 μM) is pipetted into 24 μl of activated enzyme (final concentration e.g. 2 nM) in reaction buffer (50 mM Tris/HCl pH 7.5, 10 mM CaCl2, 150 mM NaCl, 0.05% Brij®-35) in a white 384-hole microtiter plate (MTP). The enzymatic reaction is started by adding the intramolecularly quenched substrate Mca-Pro-Leu-Gly-Leu-Dpa(Dnp)-Ala-Arg-NH2 (final concentration e.g. 10 μM; R&D Systems, ES-001), such that a total test volume of 50 μl results. The progress of the MMP-1 reaction is measured by measuring the fluorescence intensity (excitation 320 nm, emission 410 nm) over a suitable period (e.g. over 120 min at a temperature of 32° C.).
(§3) The IC50 values were determined for racemates and enantiomers from differently generated DMSO stock solutions. Whereas an automatically produced DMSO stock solution from the internal substance logistics was used for racemates by means of a standard method, in the case of enantiomers a freshly produced, manually prepared DMSO stock solution was used in each case for a more precise direct comparison of the enantiomers with one another.

MMP-9 = biological target: T2, MMP-9 (Homo sapiens, UniProt P14780); experiment: In vitro MMP-9 inhibition test
T2 construct: purchased R&D Systems 911-MP
Excerpt: as §1
as §2, with “Recombinant MMP-9” for “Recombinant MMP-1”, “Systems, 911-MP)” for “Systems, 901-MP)”, “instructions” for “instructions by”, “is pipette” for “is pipetted”, “e.g. 0.1” for “e.g. 2”, “the MMP-9” for “the MMP-1”
as §3

MMP-8 of the rat = biological target: T3, MMP-8 of the rat (Rattus norvegicus, UniProt O88766); experiment: In vitro MMP-8 inhibition test of the rat
T3 construct: purchased R&D Systems 3245-MP
Excerpt: as §1
Recombinant MMP-8 of the rat (R&D Systems, 3245-MP) is chemically activated in accordance with the manufacturer's instructions using APMA. […] of the test compound to be analysed (as a solution in DMSO, suitable concentrations e.g. 1 nM to 30 μM) is pipetted into 24 μl of activated enzyme (final concentration e.g. 1 nM) in reaction buffer (50 mM Tris/HCl pH 7.5, 10 mM CaCl2, 150 mM NaCl, 0.05% Brij®-35) in a white 384-hole microtiter plate (MTP). The enzymatic reaction is started by adding the intramolecularly quenched substrate Mca-Lys-Pro-Leu-Gly-Leu-Dpa(Dnp)-Ala-Arg-NH2 (final concentration e.g. 5 μM; R&D Systems, ES-010), such that a total test volume of 50 μl results. The progress of the MMP-8 reaction is measured by measuring the fluorescence intensity (excitation 320 nm, emission 410 nm) over a suitable period (e.g. over 120 min at a temperature of 32° C.).
Tables 3A and 3B below give the IC50 values from these tests for the inhibition of rodent MMPs for representative embodiment examples of the present invention and also for two structurally related comparison compounds from the prior art (as racemate and separated enantiomer)→(in part as average values from several independent individual determinations and rounded to two significant places). The IC50 values were determined for racemates and enantiomers from differently generated DMSO stock solutions. Whereas an automatically created DMSO stock solution from the internal substance logistics was used for racemates by means of a standard method, in the case of enantiomers, in each case a freshly produced, manually prepared DMSO stock solution was used for a more precise direct comparison of the enantiomers with one another.

T3 sequence (O88766 102-466): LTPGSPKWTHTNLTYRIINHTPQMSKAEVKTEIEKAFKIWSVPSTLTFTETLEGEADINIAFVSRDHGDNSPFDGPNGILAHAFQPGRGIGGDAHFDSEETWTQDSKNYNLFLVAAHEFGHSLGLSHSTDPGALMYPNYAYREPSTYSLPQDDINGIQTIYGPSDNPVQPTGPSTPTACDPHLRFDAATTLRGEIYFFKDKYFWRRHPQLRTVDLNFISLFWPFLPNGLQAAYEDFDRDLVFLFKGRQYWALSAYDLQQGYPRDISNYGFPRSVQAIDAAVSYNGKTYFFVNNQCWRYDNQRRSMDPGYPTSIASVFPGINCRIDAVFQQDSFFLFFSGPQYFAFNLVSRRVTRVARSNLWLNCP
T2 sequence (P14780 107-707 limits assumed): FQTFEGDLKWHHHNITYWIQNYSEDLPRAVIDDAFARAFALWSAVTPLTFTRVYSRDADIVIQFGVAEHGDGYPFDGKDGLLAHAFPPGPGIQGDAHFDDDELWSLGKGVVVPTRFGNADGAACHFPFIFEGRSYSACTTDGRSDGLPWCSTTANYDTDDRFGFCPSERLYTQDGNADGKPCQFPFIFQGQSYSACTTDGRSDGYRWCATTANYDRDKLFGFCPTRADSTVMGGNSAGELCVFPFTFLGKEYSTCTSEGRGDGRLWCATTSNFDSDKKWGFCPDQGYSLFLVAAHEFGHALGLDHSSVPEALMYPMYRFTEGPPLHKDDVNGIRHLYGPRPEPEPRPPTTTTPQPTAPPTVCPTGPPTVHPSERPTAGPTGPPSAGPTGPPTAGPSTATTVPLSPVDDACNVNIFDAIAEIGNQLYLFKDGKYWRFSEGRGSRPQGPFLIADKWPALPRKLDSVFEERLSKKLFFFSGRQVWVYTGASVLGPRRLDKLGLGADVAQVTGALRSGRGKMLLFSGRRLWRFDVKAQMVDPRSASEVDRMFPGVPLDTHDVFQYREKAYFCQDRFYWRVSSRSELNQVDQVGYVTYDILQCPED

O=C(O)[C@H]1[C@H](Cn2nnc3ccccc3c2=O)CC[C@@H]1C(=O)c1ccc(-c2ccc(Cl)cc2)cc1 (racemic) [Comparative Example A-1, (1RS,2RS,5SR)-2-[(4′-chlorobiphenyl-4-yl)carbonyl]-5-[(4-oxo-1,2,3-benzotriazin-3(4H)-yl)methyl]cyclopentanecarboxylic acid (racemate)]
IC50 (MMP-1): 220 nM | IC50 (MMP-9): 1.9 nM | IC50 (MMP-8 of the rat): 1.4 nM

CCCCCOc1ccc(C(=O)CC(CCn2nnc3ccccc3c2=O)C(=O)O)cc1 (racemic) [Comparative Example B-1, (+/−)-4-Oxo-2-[2-(4-oxo-1,2,3-benzotriazin-3(4H)-yl)ethyl]-4-[4-(pentyloxy)phenyl]butanoic acid (racemate)]
IC50 (MMP-1): > 40000 nM | IC50 (MMP-9): 1400 nM | IC50 (MMP-8 of the rat): 3500 nM

O=C(O)[C@H]1[C@H](Cn2nnc3ccccc3c2=O)CC[C@@H]1C(=O)c1ccc(OCc2ccccc2)cc1 (racemic) [Example 1, (+/−)-(1RS,2RS,5SR)-2-[4-(Benzyloxy)benzoyl]-5-[(4-oxo-1,2,3-benzotriazin-3(4H)-yl)methyl]cyclopentanecarboxylic acid (racemate)]
IC50 (MMP-1): 12000 nM | IC50 (MMP-9): 30 nM | IC50 (MMP-8 of the rat): 100 nM

CCCCCOc1ccc(C(=O)CC(CCn2nnc3ccccc3c2=O)C(=O)O)cc1 (single isomer, unassigned; enantiomer 1) [Comparative Example B-2, (+)-4-Oxo-2-[2-(4-oxo-1,2,3-benzotriazin-3(4H)-yl)ethyl]-4-[4-(pentyloxy)phenyl]butanoic acid (enantiomer 1)]
IC50 (MMP-1): > 40000 nM | IC50 (MMP-9): 625 nM | IC50 (MMP-8 of the rat): 1040 nM

O=C(O)[C@@H]1[C@@H](Cn2nnc3ccccc3c2=O)CC[C@H]1C(=O)c1ccc(-c2ccc(Cl)cc2)cc1 (single isomer, unassigned; enantiomer 2) [Comparative Example A-3, (1RS,2RS,5SR)-2-[(4′-Chlorobiphenyl-4-yl)carbonyl]-5-[(4-oxo-1,2,3-benzotriazin-3(4H)-yl)methyl]cyclopentanecarboxylic acid (enantiomer 2)]
IC50 (MMP-1): 135 nM | IC50 (MMP-9): 1.1 nM | IC50 (MMP-8 of the rat): 1.4 nM

O=C(O)[C@H]1[C@H](Cn2nnc3ccccc3c2=O)CC[C@@H]1C(=O)c1ccc(OCc2ccccc2)cc1 [Example 2, (+)-(1S,2S,5R)-2-[4-(Benzyloxy)benzoyl]-5-[(4-oxo-1,2,3-benzotriazin-3(4H)-yl)methyl]cyclopentanecarboxylic acid]
IC50 (MMP-1): 5800 nM | IC50 (MMP-9): 23 nM | IC50 (MMP-8 of the rat): 38.5 nM
